Measurements: US6914045B2, “Glycopeptide antibiotics” (Wyeth Holdings Corporation, priority 2001, dated 2005)

Experiments:
Assay in all cases: in vitro antibacterial evaluation, MIC by broth dilution
Assay type in all cases: cell-based
Escherichia coli = settings: 18 hours at 35° C.
Outline: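 Broth dilution MIC per NCCLS M7-A2 in Mueller-Hinton II medium, inoculum 5×10^5 CFU/mL, antibiotic range 64-0.06 μg/mL. MIC taken as lowest concentration inhibiting growth.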

Streptococcus sp. = settings: broth dilution, 18 hours at 35° C.
Outline: (§1)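 MIC = lowest antibiotic concentration preventing visible growth; inoculum 5×10^5 CFU/mL; drug range 64-0.06 μg/mL; Muller-Hinton II […]; NCCLS M7-A2 guidance.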

Enterococcus sp. = settings: broth dilution, 18 hours at 35° C.
Outline: as §1

Staphylococcus sp. = settings: broth dilution, 18 hours at 35° C.
Outline: as §1

“Di-N-(4-tert-butylbenzyl)-cyclo[glycyl-β-methylphenylalanyl-O-(4-O-hexopyranosylhexopyranosyl)tyrosyl-3-(2-iminoimidazolidin-4-yl)seryl-3-(3-hexoopyranosyl-2-iminoimidazolidin-4-yl)serylseryl] [Example 60a]” was tested, and the “MIC Escherichia coli (ATCC 25922)” value (Escherichia coli) was over 128 µg/mL, the “MIC Escherichia coli (GC 4559)” value (Escherichia coli) was over 128 µg/mL and the “MIC Escherichia coli (GC 4560)” value (Escherichia coli) was 16 µg/mL. The “MIC Streptococcus agalactiae (GC 4564)” value (Streptococcus sp.) was over 128 µg/mL, the “MIC Streptococcus pneumoniae (ATCC 6301)” value (Streptococcus sp.) was over 128 µg/mL and the “MIC Streptococcus pneumoniae (GC 1894)” value (Streptococcus sp.) was 64 µg/mL. For the same substance, the “MIC Streptococcus pneumoniae (GC 4565)” value (Streptococcus sp.) was 128 µg/mL, the “MIC Streptococcus pyogenes (GC 4563)” value (Streptococcus sp.) was over 128 µg/mL and the “MIC Streptococcus pneumoniae (ATCC 6301)” value (Streptococcus sp.; strain ATCC 6301) was over 128 µg/mL. For the same substance, the “MIC Streptococcus pneumoniae (GC 1894)” value (Streptococcus sp.; strain GC 1894) was 64 µg/mL, the “MIC Streptococcus pyogenes (GC 4563)” value (Streptococcus sp.; strain GC 4563) was over 128 µg/mL and the “MIC Streptococcus agalactiae (GC 4564)” value (Streptococcus sp.; strain GC 4564) was over 128 µg/mL. The “MIC Streptococcus pneumoniae (GC 4565)” value (Streptococcus sp.; strain GC 4565) was 128 µg/mL, the “MIC Enterococcus avium (GC 4558)” value (Enterococcus sp.; Enterococcus avium (GC 4558)) was 128 µg/mL and the “MIC Enterococcus faecalis (ATCC 29212)” value (Enterococcus sp.; Enterococcus faecalis (ATCC 29212)) was over 128 µg/mL. For the same substance, the “MIC Enterococcus faecalis (GC 4552)” value (Enterococcus sp.; Enterococcus faecalis (GC 4552)) was over 128 µg/mL, the “MIC Enterococcus faecalis (GC 4553)” value (Enterococcus sp.; Enterococcus faecalis (GC 4553)) was 128 µg/mL and the “MIC Enterococcus faecalis (GC 4554)” value (Enterococcus sp.; Enterococcus faecalis (GC 4554)) was over 128 µg/mL. For the same substance, the “MIC Enterococcus faecalis (GC 6189)” value (Enterococcus sp.; Enterococcus faecalis (GC 6189)) was over 128 µg/mL, the “MIC Enterococcus faecium (GC 2243)” value (Enterococcus sp.; Enterococcus faecium (GC 2243)) was over 128 µg/mL and the “MIC Enterococcus faecium (GC 4556)” value (Enterococcus sp.; Enterococcus faecium (GC 4556)) was over 128 µg/mL. The “MIC Enterococcus faecium (GC 4557)” value (Enterococcus sp.; Enterococcus faecium (GC 4557)) was 128 µg/mL, the “MIC Enterococcus avium (GC 4558)” value (Enterococcus sp.) was 128 µg/mL and the “MIC Enterococcus faecalis (ATCC 29212)” value (Enterococcus sp.) was over 128 µg/mL. For the same substance, the “MIC Enterococcus faecalis (GC 2242)” value (Enterococcus sp.) was over 128 µg/mL, the “MIC Enterococcus faecalis (GC 2691)” value (Enterococcus sp.) was over 128 µg/mL and the “MIC Enterococcus faecalis (GC 3059)” value (Enterococcus sp.) was over 128 µg/mL. For the same substance, the “MIC Enterococcus faecalis (GC 4552)” value (Enterococcus sp.) was over 128 µg/mL, the “MIC Enterococcus faecalis (GC 4553)” value (Enterococcus sp.) was 128 µg/mL and the “MIC Enterococcus faecalis (GC 4554)” value (Enterococcus sp.) was over 128 µg/mL. The “MIC Enterococcus faecalis (GC 6189)” value (Enterococcus sp.) was over 128 µg/mL, the “MIC Enterococcus faecium (GC 2243)” value (Enterococcus sp.) was over 128 µg/mL and the “MIC Enterococcus faecium (GC 4556)” value (Enterococcus sp.) was over 128 µg/mL. The “MIC Enterococcus faecium (GC 4557)” value (Enterococcus sp.) was 128 µg/mL, the “MIC Enterococcus faecalis (GC 2242)” value (Enterococcus sp.; strain GC 2242) was over 128 µg/mL and the “MIC Enterococcus faecalis (GC 2691)” value (Enterococcus sp.; strain GC 2691) was over 128 µg/mL. The “MIC Enterococcus faecalis (GC 3059)” value (Enterococcus sp.; strain GC 3059) was over 128 µg/mL, the “MIC Staphylococcus aureus (ATCC 29213)” value (Staphylococcus sp.; strain ATCC 29213) was over 128 µg/mL and the “MIC Staphylococcus aureus (GC 1131)” value (Staphylococcus sp.; strain GC 1131) was over 128 µg/mL. The “MIC Staphylococcus aureus (GC 3051)” value (Staphylococcus sp.; strain GC 3051) was over 128 µg/mL, the “MIC Staphylococcus aureus (GC 3053)” value (Staphylococcus sp.; strain GC 3053) was over 128 µg/mL and the “MIC Staphylococcus aureus (GC 4541)” value (Staphylococcus sp.; strain GC 4541) was over 128 µg/mL. For the same substance, the “MIC Staphylococcus aureus (GC 4542)” value (Staphylococcus sp.; strain GC 4542) was over 128 µg/mL, the “MIC Staphylococcus aureus-SMITH (GC 4543)” value (Staphylococcus sp.; strain GC 4543) was over 128 µg/mL and the “MIC Staphylococcus aureus (GC 4544)” value (Staphylococcus sp.; strain GC 4544) was over 128 µg/mL. The “MIC Staphylococcus aureus (GC 4545)” value (Staphylococcus sp.; strain GC 4545) was over 128 µg/mL, the “MIC Staphylococcus haemolyticus (GC 4546)” value (Staphylococcus sp.; strain GC 4546) was over 128 µg/mL and the “MIC Coagulase Negative Staphylococcus (GC 4547)” value (Staphylococcus sp.; strain GC 4547) was over 128 µg/mL. The “MIC Coagulase Negative Staphylococcus (GC 4548)” value (Staphylococcus sp.; strain GC 4548) was over 128 µg/mL, the “MIC Coagulase Negative Staphylococcus (GC 4549)” value (Staphylococcus sp.; strain GC 4549) was over 128 µg/mL and the “MIC Coagulase Negative Staphylococcus (GC 4551)” value (Staphylococcus sp.; strain GC 4551) was over 128 µg/mL. The “MIC Coagulase Negative Staphylococcus (GC 6257)” value (Staphylococcus sp.; strain GC 6257) was over 128 µg/mL.
